# Entries after “also recorded” stand apart in the source; their conditions may differ.
# Key:
# Format in all cases: cell-based, human
# [1] = tested on: T84 monolayers co-cultured with CD3/28-activated PBMC; test: T84/PBMC co-culture, barrier integrity by transepithelial electrical resistance (TER); conditions: for TER of T84 monolayers: apical exposure, 24 h and 48 h, vs medium control; for PBMC-induced disruption of intestinal epithelial barrier integrity (injurious effects of activated PBMC): PBMC from food allergy patients, agonist on apical side of T84 cells, FIG. 3
# Description: (§1) The T84 cells are grown in DMEM/F-12 (1:1) supplemented with GlutaMAX®, 10% fetal bovine serum and […] penicillin/streptomycin. (T84 cells (human colorectal carcinoma cell line, ATCC® CCL-248™, Manassas, Va., USA). T84 cells were seeded in 12-well transwell insert filters (Coming Inc., NY, USA) and cultured in T84 cell medium for 3-4 weeks till co-culture with PBMC. Transepithelial electrical resistance (TER) was measured during culture, which generally increases to >1500 Ω×cm^2 and becomes stable after 3-4 weeks of culture. When TER was ≥2000 Ω×cm^2, T84 monolayers 14 were co-cultured with 1.5×10^6 PBMC 16 in the basolateral chamber.
# (§2) The PBMC 16 for use in the co-cultures are isolated from 20 mL fresh blood from healthy controls (n=6) and subjects with food allergy (n=8) (Table 1). The average age of healthy controls was 36 (range 24-54) vs. 51 (range 26-74) for food allergic subjects (P>0.05). PBMC were isolated by density gradient centrifugation using lymphocyte separation medium according to manufacturer's protocol (Cellgro, Mediatec, Inc., Manassas, Va., USA). PBMC were collected in RPMI1640 supplemented with L-glutamine (Gibco), 2.5% fetal bovine serum, 1% penicillin/streptomycin and 1% sodium pyruvate (Sigma, St. Louis, Mo., USA) (PBMC medium) at 1×10^6 cell/mL.
# (§3) T84/PBMC co-cultures were maintained in PBMC medium. PBMC were stimulated using CD3 and CD28 antibodies (clone OKT3 and CD28.2, 0.2 μg/mL; eBioscience, San Diego, Calif., USA) and simultaneously IEC were stimulated apically with Pam3CSK4, LPS or type C CpG oligonucleotide M362 (Invivogen, San Diego, Calif., USA) as previously described. Cultures were maintained at 37° C./5% CO2 for indicated time points.
# The barrier integrity of T84 monolayers was assessed by measuring the TER and paracellular permeability to 4 kDa FITC-dextran. In short, TER was measured using a dual electrode system designed for cell culture insert analysis (EVOM; World Precision Instruments, Sarasota, Fla.) prior to co-culture and at indicated time points during co-culture. Data is reported as percentage of the initial TER value measured before co-culture. For assessment of permeability, T84 monolayers were separated from PBMC and cultured in PBMC medium for 1 h. The monolayers were then apically exposed to 1 mg/mL 4 kDa FITC-dextran (Sigma) and basolateral supernatants were collected after 60 min. FITC-dextran was measured at excitation wavelength 485 nm and emission wavelength 520 nm. The 4 kDa FITC-dextran flux was expressed as pmol/(h×cm^2).
# In some experiments, PBMC are stimulated using antibodies against CD3 and CD28 and T84 cell monolayers were simultaneously exposed to synthetic TLR ligands or fermentation product 12 (co-culture of stool samples without or with different prebiotics). SCFA content (acetate, propionate and butyrate) in the fermentation products (“Fermenta”) 12 was analyzed by HPLC. TER was measured at t=0 h, t=4 h, t=18 h and t=24 h to monitor changes in the barrier integrity of the T84 monolayers. Non-limiting example of prebiotics include commercially available inulin and fructose oligosaccharides (FOS) that promote production of Butyrate by intestinal bacteria, galactose oligosaccharides (GOS) that promote growth of bifidobacteria in the intestine or prebiotics like resistant starch, corn arbionoxylan that promotes propionate. Other prebiotics may also be used.
# [2] = tested on: T84 monolayers co-cultured with CD3/28-activated PBMC; test: T84/PBMC co-culture, paracellular permeability to 4 kDa FITC-dextran; conditions: PBMC from food allergic subjects; 48 h co-culture; vs medium control
# Description: as §1, §2
# T84/PBMC co-cultures were maintained in PBMC medium. […]
# The barrier integrity of T84 monolayers was assessed by measuring the TER and paracellular permeability to 4 kDa FITC-dextran. In short, TER was measured using a dual electrode system designed for cell culture insert analysis (EVOM; World Precision Instruments, Sarasota, Fla.) prior to co-culture and at indicated time points during co-culture. Data is reported as percentage of the initial TER value measured before co-culture. […] FITC-dextran was measured at excitation wavelength 485 nm and emission wavelength 520 nm. The 4 kDa FITC-dextran flux was expressed as pmol/(h×cm^2).
# [3] = tested on: T84/PBMC co-cultures; test: Cytokine production in T84/PBMC co-cultures with apical TLR ligands (ELISA); conditions: for IL-10/IL-13 ratio / IFN-γ/IL-13 ratio / IL-10/IFN-γ: T84/PBMC co-cultures; for IL-10/IL-13 ratio / IFN-γ/IL-13 ratio: vs medium; for IFN-γ/IL-13 ratio / IL-6 / IFN-γ / IL-8 / IL-10 / IL-13 / TNF-α: 24 h; for IL-10/IFN-γ: apical exposure; for IL-6 / IFN-γ / IL-8 / IL-10 / IL-13 / TNF-α: T84/PBMC, mean ± SEM
# Description: as §1, §2, §3
# (§4) Cytokine levels were measured by ELISA. IL-6, IL-8, IL-10, IL-13, IFN-γ and TNF-α were measured using the Ready-Set-Go!® ELISA kit from eBioscience according to manufacturer's protocol (eBioscience, Inc., San Diego, Calif., USA).
# (§5) To evaluate whether epithelial TLR ligation modulates cytokine production by the PBMC, basolateral supernatants were collected 24 h after co-culture. Exposure of CD3/28-activated PBMC in the absence of IEC to TLR ligands served as a control to evaluate the contribution of IEC in modulating the cytokine production by PBMC. First we evaluated the production of IFN-γ and IL-13 as a reflection of a Th1 and Th2 type effector response (Table 3). No significant changes in the production of IFN-γ or IL-13 were observed, though IFN-γ production by the PBMC from food allergic subjects tended to be lower in T84/PBMC co-cultures (P=0.093). […] This was not observed when PBMC were stimulated with CpG DNA in absence of T84 cells (FIG. 7B).
# [4] = tested on: PBMC; test: Cytokine production by CD3/28-activated PBMC in absence of T84 cells (ELISA); conditions: for IFN-γ / IL-6 / IL-8 / IL-10 / IL-13 / TNF-α / IFN-γ/IL-13 ratio: PBMC in absence of T84 cells, 24 h; for IFN-γ / IL-6 / IL-8 / IL-10 / IL-13 / TNF-α: mean ± SEM; for IL-10/IL-13 ratio: absence of T84 cells
# Description: as §2, §3, §4, §5
# [5] = PBMC from food allergic subjects
substance,measurement,setting,value
type C CpG oligonucleotide M362 [CpG DNA],TER of T84 monolayers,[1]; [5],prevented PBMC-induced barrier disruption; also recorded: increased
same,PBMC-induced disruption of intestinal epithelial barrier integrity (injurious effects of activated PBMC),[1]; listed as TLR9 agonist,prevented
same,PBMC-induced disruption of intestinal epithelial barrier integrity (injurious effects of activated PBMC),[1]; listed as TLR-9 agonist,significantly blunted
same,TER of T84 monolayers,[1]; PBMC from healthy controls,prevented PBMC-induced barrier disruption; also recorded: increased
same,permeability of T84 monolayers to 4 kDa FITC-dextran,[2],reduced epithelial permeability
same,"production of IL-6, IL-8 and TNF-α by PBMC","[3]; T84/PBMC co-culture, PBMC from both healthy controls and food allergic subjects, in words",suppressed
same,IL-10/IL-13 ratio,[3]; PBMC from food allergic patients,significantly increased
same,IFN-γ/IL-13 ratio,[3]; food allergic subjects,enhanced; also recorded: increased
same,IL-10/IFN-γ,[3]; food allergic subjects,0.19±0.06
same,IFN-γ/IL-13 ratio,[3]; healthy controls,enhanced; also recorded: increased
same,IL-10/IFN-γ,[3]; healthy controls,0.12±0.06
same,IL-10/IL-13 ratio,[3]; healthy donor PBMC,tended to increase
same,IL-6,[3]; FA (food allergy) PBMC,6400 ± 1671 pg/mL
same,IFN-γ,[3]; FA PBMC,7040 ± 2454 pg/mL
same,IL-8,[3]; FA PBMC,15733 ± 4509 pg/mL
same,IL-10,[3]; FA PBMC,834 ± 233.6 pg/mL
same,IL-13,[3]; FA PBMC,35.9 ± 10.5 pg/mL
same,TNF-α,[3]; FA PBMC,2092 ± 493 pg/mL
same,IL-6,[3]; HC (healthy control) PBMC,7291 ± 1376 pg/mL
same,IFN-γ,[3]; HC PBMC,10731 ± 3289 pg/mL
same,IL-8,[3]; HC PBMC,20758 ± 5247 pg/mL
same,IL-10,[3]; HC PBMC,652.8 ± 105.5 pg/mL
same,IL-13,[3]; HC PBMC,27.5 ± 7.5 pg/mL
same,TNF-α,[3]; HC PBMC,2531 ± 552 pg/mL
same,Th1/Th2 balance of the effector immune response,"[3]; apical exposure of T84 monolayers, FIG. 4, listed as TLR9 agonist",shifts the balance of the effector immune response away from the allergy-associated Th2 response; also recorded: reversed the Th1/Th2 balance away from the allergic TH2 phenotype
same,IFN-γ,[4]; FA,3945 ± 1543 pg/mL
same,IL-6,[4]; FA,5940 ± 2450 pg/mL
same,IL-8,[4]; FA,25420 ± 6779 pg/mL
same,IL-10,[4]; FA,477.3 ± 157.7 pg/mL
same,IL-13,[4]; FA,39.9 ± 12.8 pg/mL
same,TNF-α,[4]; FA,1199 ± 437 pg/mL
same,IFN-γ,[4]; HC,2394 ± 966 pg/mL
same,IL-6,[4]; HC,2564 ± 824 pg/mL
same,IL-8,[4]; HC,19912 ± 2430 pg/mL
same,IL-10,[4]; HC,391.9 ± 149.3 pg/mL
same,IL-13,[4]; HC,19.5 ± 3.8 pg/mL
same,TNF-α,[4]; HC,1024 ± 213 pg/mL
same,IFN-γ/IL-13 ratio,[4]; food allergic subjects,not observed
same,IFN-γ/IL-13 ratio,[4]; healthy controls,not observed
same,IL-10/IL-13 ratio,[4]; [5],did not affect
same,IL-10/IL-13 ratio,[4]; PBMC from healthy controls,enhanced
same,"production of IL-6, IL8 and TNF-α","[4]; direct stimulation of PBMC from food allergic subjects, in words",did not suppress
same,pro-inflammatory cytokine production,"[4]; direct stimulation of PBMC from healthy controls, in words",reduced

# — patent publication US10222370B2, “Screening assay for choice of prebiotic to prevent/treat gastrointestinal and systemic diseases” (Rush University Medical Center, priority 2014, dated 2019)
